Some test systems named below: HCC 2998; UACC-257; HT-29; SR; UO-31; SNB-75; IGROV-1; Malme-3M; CAKI-1; SW-620; MDA-N; SN12C; SK-OV-3; NCI-H522; HCT-15; NCI/ADR-RES; HOP-62; ACHN; M14; OVCAR-8.
Common to all, as to test: inhibition of tumour cell growth, NCI panel, 48 h

Molecules are shown by their SMILES.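 Interpolation was linear, between the two tested concentrations surrounding the appropriate level; five concentrations were tested over 48 hours in 96-well plates. At the GI50, growth is halved.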 Activity calls are given as the source filed them. Cut-off read from the data, not from the text of the source: active = GI50 up to about 1.1 µM and inactive = higher. Some results are limits rather than exact numbers.

For `CN1CCN(c2ccc3[nH]c(-c4ccc5[nH]c(-c6ccc(O)cc6)nc5c4)nc3c2)CC1`, the GI50 in the assay with HCC 2998 was 151 µM (inactive); in the assay with UACC-257, 52.1 µM (inactive); in the assay on HT-29, 92.7 µM (inactive); in the assay on SR it was 28.1 µM (inactive); in the assay on UO-31, 564 µM (inactive); with SNB-75, 353 µM (inactive). Besides, the GI50 in the assay with IGROV-1 is 117 µM (inactive); with Malme-3M it was 2.64 µM (inactive); in the assay with CAKI-1, 105 µM (inactive); with SW-620 it was 102 µM (inactive); in the assay with MDA-N, 22.9 µM (inactive); in the assay with SN12C it was 127 µM (inactive). The GI50 is 664 µM (inactive) in the assay with SK-OV-3; 9.82 µM (inactive) in the assay on NCI-H522; 224 µM in the assay on HCT-15; 482 µM (inactive) in the assay with NCI/ADR-RES; 250 µM (inactive) with HOP-62; 281 µM (inactive) in the assay on ACHN. In addition, the GI50 with M14 was 149 µM (inactive).
Regarding `CN1CCCC(OC(=O)c2cc3cc(CCl)ccc3oc2=O)C1` (stereo not given), the GI50 is 18.3 µM (inactive) with HCC 2998; 18.1 µM (inactive) with UACC-257; 19.5 µM (inactive) with HT-29; 21.9 µM (inactive) with SR; 15.8 µM (inactive) with UO-31; 22.2 µM (inactive) in the assay on SNB-75. The GI50 in the assay on IGROV-1 is 28.6 µM (inactive); with Malme-3M it was 17.6 µM (inactive); with CAKI-1, 23.7 µM (inactive); in the assay with SW-620, 22.7 µM (inactive); in the assay with MDA-N, 18.2 µM (inactive); with OVCAR-8 it was 28.8 µM (inactive). Moreover, the GI50 in the assay on SN12C was 20.9 µM (inactive); with SK-OV-3 it was 35.2 µM (inactive); in the assay on NCI-H522, 15.9 µM (inactive); in the assay with HCT-15 it was 19.2 µM; in the assay with NCI/ADR-RES, 27.9 µM (inactive); in the assay on HOP-62, 25.8 µM (inactive). Also, the GI50 in the assay with ACHN is 23.3 µM (inactive); in the assay on M14 it was 14.8 µM (inactive).
Turning to `C=CCCC(=O)CC(O)(C(F)(F)F)C(F)(F)F`, the GI50 with HCC 2998, in the assay on UACC-257, in the assay on HT-29, in the assay with SR, in the assay on UO-31 and in the assay on SNB-75 was > 100 µM (inactive) in each case. In addition, the GI50 in the assay with IGROV-1, with Malme-3M, in the assay on CAKI-1, with SW-620, in the assay on MDA-N and in the assay on OVCAR-8 was > 100 µM (inactive) each time. Besides, the GI50 is > 100 µM (inactive) in the assay on SK-OV-3; > 100 µM (inactive) in the assay with NCI-H522; above 100 µM with HCT-15; > 100 µM (inactive) in the assay with NCI/ADR-RES; > 100 µM (inactive) in the assay on ACHN; > 100 µM (inactive) with M14.
Consider `c1ccc(C2=Nn3c(CCCCCCCCc4nnc5n4N=C(c4ccccc4)CS5)nnc3SC2)cc1`, for which the GI50 with HCC 2998 was > 100 µM (inactive); in the assay with UACC-257, > 100 µM (inactive); with HT-29, 19.6 µM (inactive); in the assay on SR, > 68.5 µM (inactive); with UO-31 it was > 67.3 µM (inactive); with SNB-75, 14.5 µM (inactive). Further, the GI50 in the assay on IGROV-1 is > 100 µM (inactive); in the assay with Malme-3M, 28.2 µM (inactive); in the assay with CAKI-1, 41.2 µM (inactive); in the assay on SW-620, > 100 µM (inactive); with MDA-N, > 100 µM (inactive); in the assay on OVCAR-8 it was > 46.5 µM (inactive). For the same compound, the GI50 is > 88.1 µM (inactive) in the assay on SN12C; 25.9 µM (inactive) in the assay on SK-OV-3; 40.2 µM (inactive) in the assay on NCI-H522; above 100 µM with HCT-15; > 79.8 µM (inactive) in the assay with NCI/ADR-RES; 17.4 µM (inactive) in the assay on HOP-62. Also, the figures for the GI50 in the assay with ACHN and with M14 were 40.6 µM (inactive) and 37.6 µM (inactive), respectively.
Regarding `COc1cccc(CCn2c(N)c(-c3ccccc3)c3ccc([N+](=O)[O-])cc3c2=O)c1`, the GI50 was 11.1 µM (inactive) in the assay with HCC 2998; 17.3 µM (inactive) in the assay with UACC-257; 10.6 µM (inactive) with HT-29; 6.61 µM (inactive) with SR; 9.02 µM (inactive) in the assay with UO-31; 2.99 µM (inactive) with SNB-75. Further, the GI50 in the assay on IGROV-1 is 5.6 µM (inactive); in the assay on Malme-3M, 14.2 µM (inactive); with CAKI-1 it was 6.3 µM (inactive); in the assay with SW-620 it was 25.7 µM (inactive); in the assay with MDA-N it was 17.5 µM (inactive); in the assay on OVCAR-8, 1.98 µM (inactive). In addition, the GI50 is 0.664 µM (active) in the assay on SN12C; 5.07 µM (inactive) in the assay on SK-OV-3; 2.93 µM (inactive) in the assay with NCI-H522; 7.08 µM in the assay on HCT-15; 1.9 µM (inactive) in the assay with NCI/ADR-RES; 6.56 µM (inactive) with HOP-62. Moreover, the GI50 is 5.25 µM (inactive) in the assay on ACHN and 11.2 µM (inactive) with M14.
Take `[N-]=[N+]=C(C(=O)N1CCCC1=O)S(=O)(=O)c1ccccc1`: the GI50 is > 100 µM (inactive) in the assay with HCC 2998; > 100 µM (inactive) in the assay with UACC-257; > 10 µM (inactive) with HT-29; 87.7 µM (inactive) in the assay on SR; > 100 µM (inactive) with UO-31; 87.7 µM (inactive) in the assay with SNB-75. For the same compound, the GI50 with IGROV-1 is > 100 µM (inactive); in the assay on Malme-3M, 28.3 µM (inactive); in the assay with SW-620, > 100 µM (inactive); in the assay on MDA-N, 44 µM (inactive); in the assay on OVCAR-8, > 100 µM (inactive); with SN12C, > 100 µM (inactive). Moreover, the GI50 in the assay on NCI-H522 is 30.9 µM (inactive); with HCT-15, 51.9 µM; with NCI/ADR-RES it was > 100 µM (inactive); with HOP-62, 58.6 µM (inactive); in the assay with ACHN, > 100 µM (inactive); with M14, 91.2 µM (inactive).
As for `CC(=O)Nc1cc(/C=C\C(=O)N2CC(CCl)c3c2cc(N)c2ccccc32)n(C)n1` (stereo not given), the GI50 in the assay on HCC 2998 is 0.0148 µM (active); in the assay with UACC-257, 0.0132 µM (active); in the assay on SR, < 0.001 µM (active); in the assay with UO-31 it was 0.00284 µM (active); in the assay on SNB-75 it was 0.00165 µM (active); in the assay on IGROV-1 it was 0.0137 µM (active). The GI50 with Malme-3M is 0.012 µM (active); in the assay on CAKI-1 it was 0.00129 µM (active); in the assay with SW-620 it was 0.0123 µM (active); in the assay on MDA-N it was 0.0185 µM (active); with OVCAR-8 it was 0.00168 µM (active); with SN12C, < 0.001 µM (active). The GI50 was 0.0163 µM (active) in the assay with SK-OV-3; 0.0233 µM with HCT-15; 0.0216 µM (active) with NCI/ADR-RES; 0.00347 µM (active) in the assay on HOP-62; < 0.001 µM (active) with ACHN; 0.0115 µM (active) in the assay on M14.
Take `CC(=O)N(O)[C@@H]1CC[C@H](n2cnc3c(N)ncnc32)C1`: the GI50 in the assay on HCC 2998, in the assay with UACC-257, with SR, with UO-31, with SNB-75 and in the assay on IGROV-1 was > 100 µM (inactive) in each case. The GI50 with Malme-3M, in the assay on CAKI-1, in the assay on SW-620, with MDA-N, in the assay on OVCAR-8 and in the assay on SN12C was > 100 µM (inactive) throughout. Moreover, the GI50 in the assay on SK-OV-3 is > 100 µM (inactive); in the assay on NCI-H522, > 100 µM (inactive); in the assay on HCT-15, above 100 µM; with NCI/ADR-RES, > 100 µM (inactive); in the assay with HOP-62 it was > 100 µM (inactive); in the assay with ACHN, > 100 µM (inactive). The GI50 with M14 was > 100 µM (inactive).
In the case of `c1ccc(C2C3=C(CCCC3)Nc3nc4cc5ccccc5cc4n32)cc1` (stereo not given), the GI50 in the assay on HCC 2998, in the assay on UACC-257, in the assay with HT-29, with SR, in the assay with UO-31 and with SNB-75 was > 100 µM (inactive) each time. In addition, the GI50 in the assay on IGROV-1, with Malme-3M, in the assay with CAKI-1, in the assay on SW-620, with MDA-N and in the assay on OVCAR-8 was > 100 µM (inactive) each time. Further, the GI50 in the assay with SN12C is > 100 µM (inactive); with SK-OV-3, > 100 µM (inactive); in the assay on NCI-H522, > 100 µM (inactive); in the assay with HCT-15, above 100 µM; with NCI/ADR-RES it was > 100 µM (inactive); with ACHN it was > 100 µM (inactive). Moreover, the GI50 in the assay with M14 is > 100 µM (inactive).
Consider `N=c1ccn2c(n1)OC1C(OP(=O)(O)O)C(CO)OC12` (stereo not given), for which the GI50 in the assay on HCC 2998 is 11 µM (inactive); with UACC-257 it was > 30.2 µM (inactive); in the assay with HT-29 it was 10.5 µM (inactive); in the assay on SR, 3.12 µM (inactive); in the assay with UO-31, 7.64 µM (inactive); with SNB-75 it was > 88.3 µM (inactive). The GI50 was > 80.7 µM (inactive) in the assay on IGROV-1; > 100 µM (inactive) with Malme-3M; > 24.5 µM (inactive) in the assay on CAKI-1; > 47.2 µM (inactive) with SW-620; > 83.9 µM (inactive) in the assay on MDA-N; 5.45 µM (inactive) in the assay with OVCAR-8. Also, the GI50 is 20.2 µM (inactive) in the assay on SN12C; > 53.6 µM (inactive) in the assay on SK-OV-3; > 80.4 µM (inactive) in the assay with NCI-H522; above 100 µM in the assay with HCT-15; 22.5 µM (inactive) with NCI/ADR-RES; 1.21 µM (inactive) in the assay with HOP-62. For the same compound, the GI50 was 1.06 µM (active) in the assay on ACHN and 1.02 µM (active) with M14.
`COc1cccc2c1-c1ccccc1[C@H](Nc1ccccc1)[C@@]2(C)O`: the GI50 in the assay with HCC 2998 was 7.26 µM (inactive); in the assay with UACC-257, 6.11 µM (inactive); in the assay with HT-29 it was 3.78 µM (inactive); in the assay with SR it was 0.865 µM (active); in the assay with UO-31 it was 4.93 µM (inactive); in the assay with SNB-75, 2.28 µM (inactive). The GI50 in the assay on Malme-3M was 7.93 µM (inactive); in the assay with CAKI-1, 4.1 µM (inactive); in the assay on SW-620, 4.35 µM (inactive); with MDA-N it was 1.71 µM (inactive); with OVCAR-8, 10.4 µM (inactive); in the assay with SN12C, 4.55 µM (inactive). Further, the GI50 in the assay with SK-OV-3 was 4.27 µM (inactive); in the assay with NCI-H522 it was 2.37 µM (inactive); in the assay with HCT-15 it was 4.3 µM; in the assay with NCI/ADR-RES it was 3.64 µM (inactive); in the assay with HOP-62, 3.85 µM (inactive); with ACHN it was 9.57 µM (inactive). Besides, in the assay on M14, the GI50 was 3.86 µM (inactive).

For the origin of these results see ChEMBL document CHEMBL1201862, “PubChem BioAssay data set” (2004).
